Laboratory results as given in patent US9067977B2, “Peptides derivatized with A-B-C-D- and their therapeutical use” (Novo Nordisk A/S, priority 2007, dated 2015).
Starred links: 1 amine or outer side, 2 acyl side, 3 side chain; linkers in the order of their positions; H or OH if unused. Non-standard residues stand in square brackets, D forms with d. Residues, ends and D or L forms follow the SMILES beside them. Groups on a side chain read outwards from the residue. *: point of attachment. C18 diacid = O=C(O)CCCCCCCCCCCCCCCCC(=O)*; d(βAsp) = O=C(O)[C@@H](CC(=O)[*:2])N[*:1]; AEEA = NCCOCCOCC(=O)O; Aib = CC(C)(N)C(=O)O; Inp = O=C(O)C1CCNCC1

What was measured:
[1] = molecular target: T1, human serum albumin (HSA) (Homo sapiens, UniProt P02768); experiment: in vitro; conditions: pH 7.4
Procedure: (§1) Streptavidin-SPA beads (GE Healthcare RPNQ0009) were incubated with biotinylated HSA for 5 hours. The beads were washed with buffer to remove unbound HSA. […] After 20 hours of gentle rocking at room temperature the plates were centrifuged and counted on a TopCounter.

[2] = molecular target: T1, human serum albumin (HSA); experiment: Albumin binding affinity, competition scintillation proximity assay
Procedure: as §1

T1 sequence (P02768 25-609): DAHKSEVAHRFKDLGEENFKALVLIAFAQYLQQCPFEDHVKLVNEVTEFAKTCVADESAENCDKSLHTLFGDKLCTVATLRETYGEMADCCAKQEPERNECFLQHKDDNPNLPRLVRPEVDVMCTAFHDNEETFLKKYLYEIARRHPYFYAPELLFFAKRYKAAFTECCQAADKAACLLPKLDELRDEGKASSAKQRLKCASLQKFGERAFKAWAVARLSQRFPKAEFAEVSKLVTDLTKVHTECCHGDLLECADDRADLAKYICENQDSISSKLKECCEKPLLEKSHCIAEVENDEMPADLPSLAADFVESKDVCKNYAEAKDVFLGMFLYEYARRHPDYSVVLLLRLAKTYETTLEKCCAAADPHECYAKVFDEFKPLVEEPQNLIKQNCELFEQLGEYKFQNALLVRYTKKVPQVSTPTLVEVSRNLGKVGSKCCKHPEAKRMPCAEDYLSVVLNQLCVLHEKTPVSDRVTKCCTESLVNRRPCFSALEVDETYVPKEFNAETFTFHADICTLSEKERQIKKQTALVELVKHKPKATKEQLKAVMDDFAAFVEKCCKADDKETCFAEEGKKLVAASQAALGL

SMILES	EC50 at 20 h [1]	EC50 [2]
CC[C@H](C)[C@H](NC(=O)[C@H](Cc1ccccc1)NC(=O)[C@H](CCC(=O)O)NC(=O)[C@H](CCCCNC(=O)COCCOCCNC(=O)COCCOCCNC(=O)COCCOCCNC(=O)COCCOCCNC(=O)COCCOCCNC(=O)COCCOCCNC(=O)CC[C@H](NC(=O)CC[C@H](NC(=O)CCCCCCCCCCCNC(=O)CCCS(=O)(=O)NC(=O)CCCCCCCCCCCCCCCc1nnn[nH]1)C(=O)O)C(=O)O)NC(=O)[C@H](C)NC(=O)[C@H](C)NC(=O)[C@H](CCC(N)=O)NC(=O)CNC(=O)[C@H](CCC(=O)O)NC(=O)[C@H](CC(C)C)NC(=O)[C@H](Cc1ccc(O)cc1)NC(=O)[C@H](CO)NC(=O)[C@H](CO)NC(=O)[C@@H](NC(=O)[C@H](CC(=O)O)NC(=O)[C@H](CO)NC(=O)[C@@H](NC(=O)[C@H](Cc1ccccc1)NC(=O)[C@@H](NC(=O)CNC(=O)[C@H](CCC(=O)O)NC(=O)C(C)(C)NC(=O)[C@@H](N)Cc1c[nH]cn1)[C@@H](C)O)[C@@H](C)O)C(C)C)C(=O)N[C@@H](C)C(=O)N[C@@H](Cc1c[nH]c2ccccc12)C(=O)N[C@@H](CC(C)C)C(=O)N[C@H](C(=O)N[C@@H](CCCNC(=N)N)C(=O)NCC(=O)N[C@@H](CCCNC(=N)N)C(N)=O)C(C)C [Example 45, N-epsilon26-[2-(2-{2-[2-(2-{2-[2-(2-{2-[2-(2-{2-[2-(2-{2-[2-(2-{2-[(S)-4-Carboxy-4-((S)-4-carboxy-4-{12-[4-(16-(1H-tetrazol-5-yl)hexadecanoylsulfamoyl)butyrylamino]dodecanoylamino}butyrylamino)butyrylamino]ethoxy}ethoxy)acetylamino]ethoxy}ethoxy)acetylamino]ethoxy}ethoxy)acetylamino]ethoxy}ethoxy)acetylamino]ethoxy}ethoxy)acetylamino]ethoxy}ethoxy)acetyl][Aib8,Lys26,Arg34]GLP-1-(7-36)amide]	–	100 to 150 nM
CC[C@H](C)[C@H](NC(=O)[C@H](Cc1ccccc1)NC(=O)[C@H](CCC(=O)O)NC(=O)[C@H](CCCCNC(=O)COCCOCCNC(=O)CC[C@H](NC(=O)CC[C@H](NC(=O)CCCCCCCCCCCNC(=O)CCCS(=O)(=O)NC(=O)CCCCCCCCCCCCCCCc1nnn[nH]1)C(=O)O)C(=O)O)NC(=O)[C@H](C)NC(=O)[C@H](C)NC(=O)[C@H](CCC(N)=O)NC(=O)CNC(=O)[C@H](CCC(=O)O)NC(=O)[C@H](CC(C)C)NC(=O)[C@H](Cc1ccc(O)cc1)NC(=O)[C@H](CO)NC(=O)[C@H](CO)NC(=O)[C@@H](NC(=O)[C@H](CC(=O)O)NC(=O)[C@H](CO)NC(=O)[C@@H](NC(=O)[C@H](Cc1ccccc1)NC(=O)[C@@H](NC(=O)CNC(=O)[C@H](CCC(=O)O)NC(=O)C(C)(C)NC(=O)[C@@H](N)Cc1c[nH]cn1)[C@@H](C)O)[C@@H](C)O)C(C)C)C(=O)N[C@@H](C)C(=O)N[C@@H](Cc1c[nH]c2ccccc12)C(=O)N[C@@H](CC(C)C)C(=O)N[C@H](C(=O)N[C@@H](CCCNC(=N)N)C(=O)NCC(=O)N[C@@H](CCCNC(=N)N)C(N)=O)C(C)C [Example 44, N-epsilon26-[2-(2-{2-[(S)-4-Carboxy-4-((S)-4-carboxy-4-{12-[4-(16-(1H-tetrazol-5-yl)hexadecanoylsulfamoyl)butyrylamino]dodecanoylamino}butyrylamino)butyrylamino]ethoxy}ethoxy)acetyl][Aib8,Arg34]GLP-1-(7-36)amide]	–	1 to 100 nM
CC[C@H](C)[C@H](NC(=O)[C@H](Cc1ccccc1)NC(=O)[C@H](CCC(=O)O)NC(=O)[C@H](CCCNC(=N)N)NC(=O)[C@H](C)NC(=O)[C@H](C)NC(=O)[C@H](CCCCNC(=O)COCCOCCNC(=O)COCCOCCNC(=O)C[C@@H](NC(=O)C1CCN(C(=O)CCCCCCCCCCCCCCCCC(=O)O)CC1)C(=O)O)NC(=O)CNC(=O)[C@H](CCC(=O)O)NC(=O)[C@H](CC(C)C)NC(=O)[C@H](Cc1ccc(O)cc1)NC(=O)[C@H](CO)NC(=O)[C@H](CO)NC(=O)[C@@H](NC(=O)[C@H](CC(=O)O)NC(=O)[C@H](CO)NC(=O)[C@@H](NC(=O)[C@H](Cc1ccccc1)NC(=O)[C@@H](NC(=O)CNC(=O)[C@H](CCC(=O)O)NC(=O)C(C)(C)NC(=O)[C@@H](N)Cc1c[nH]cn1)[C@@H](C)O)[C@@H](C)O)C(C)C)C(=O)N[C@@H](C)C(=O)N[C@@H](Cc1c[nH]c2ccccc12)C(=O)N[C@@H](CC(C)C)C(=O)N[C@H](C(=O)N[C@@H](CCCNC(=N)N)C(=O)NCC(=O)N[C@@H](CCCNC(=N)N)C(=O)NCC(=O)O)C(C)C [Example 5] (H-H[Aib]EGTFTSDVSSYLEGK([AEEA-AEEA-d(βAsp)-Inp-C18 diacid])AAREFIAWLVRGRG-OH)	–	300 to 800 nM

The next lines start with the values.

EC50 at 20 h [1]	EC50 [2]	SMILES
150 to 300 nM	–	CC[C@H](C)[C@H](NC(=O)[C@H](Cc1ccccc1)NC(=O)[C@H](CCC(=O)O)NC(=O)[C@H](CCCCNC(=O)COCCOCCNC(=O)CC[C@H](NC(=O)CC[C@H](NC(=O)CCCCCNC(=O)CCCS(=O)(=O)NC(=O)CCCCCCCCCCCCCCCc1nnn[nH]1)C(=O)O)C(=O)O)NC(=O)[C@H](C)NC(=O)[C@H](C)NC(=O)[C@H](CCC(N)=O)NC(=O)CNC(=O)[C@H](CCC(=O)O)NC(=O)[C@H](CC(C)C)NC(=O)[C@H](Cc1ccc(O)cc1)NC(=O)[C@H](CO)NC(=O)[C@H](CO)NC(=O)[C@@H](NC(=O)[C@H](CC(=O)O)NC(=O)[C@H](CO)NC(=O)[C@@H](NC(=O)[C@H](Cc1ccccc1)NC(=O)[C@@H](NC(=O)CNC(=O)[C@H](CCC(=O)O)NC(=O)C(C)(C)NC(=O)[C@@H](N)Cc1c[nH]cn1)[C@@H](C)O)[C@@H](C)O)C(C)C)C(=O)N[C@@H](C)C(=O)N[C@@H](Cc1c[nH]c2ccccc12)C(=O)N[C@@H](CC(C)C)C(=O)N[C@H](C(=O)N[C@@H](CCCNC(=N)N)C(=O)NCC(=O)O)C(C)C [Example 40, N-epsilon26-[2-(2-{2-[(S)-4-Carboxy-4-((S)-4-carboxy-4-{6-[4-(16-(1H-tetrazol-5-yl)hexadecanoylsulfamoyl)butyrylamino]hexanoylamino}butyrylamino)butyrylamino]ethoxy}ethoxy)acetyl][Aib8,Arg34]GLP-1-(7-35)]
1 to 100 nM	–	CC[C@H](C)[C@H](NC(=O)[C@H](Cc1ccccc1)NC(=O)[C@H](CCC(=O)O)NC(=O)[C@H](CCCCNC(=O)COCCOCCNC(=O)CC[C@H](NC(=O)CC[C@H](NC(=O)CCCCCCCCCCCNC(=O)CCCS(=O)(=O)NC(=O)CCCCCCCCCCCCCCCc1nnn[nH]1)C(=O)O)C(=O)O)NC(=O)[C@H](C)NC(=O)[C@H](C)NC(=O)[C@H](CCC(N)=O)NC(=O)CNC(=O)[C@H](CCC(=O)O)NC(=O)[C@H](CC(C)C)NC(=O)[C@H](Cc1ccc(O)cc1)NC(=O)[C@H](CO)NC(=O)[C@H](CO)NC(=O)[C@@H](NC(=O)[C@H](CC(=O)O)NC(=O)[C@H](CO)NC(=O)[C@@H](NC(=O)[C@H](Cc1ccccc1)NC(=O)[C@@H](NC(=O)CNC(=O)[C@H](CCC(=O)O)NC(=O)C(C)(C)NC(=O)[C@@H](N)Cc1c[nH]cn1)[C@@H](C)O)[C@@H](C)O)C(C)C)C(=O)N[C@@H](C)C(=O)N[C@@H](Cc1c[nH]c2ccccc12)C(=O)N[C@@H](CC(C)C)C(=O)N[C@H](C(=O)N[C@@H](CCCNC(=N)N)C(=O)NCC(=O)O)C(C)C [Example 39, N-epsilon26-[2-(2-{2-[(S)-4-Carboxy-4-((S)-4-carboxy-4-{12-[4-(16-(1H-tetrazol-5-yl)hexadecanoylsulfamoyl)butyrylamino]dodecanoylamino}butyrylamino)butyrylamino]ethoxy}ethoxy)acetyl][Aib8,Arg34]GLP-1-(7-35)]
